Columns and labels:
[1] = tested on: adenosine diphosphate induced platelet aggregation; assay: Inhibition of Platelet Aggregation-In Vitro, adenosine diphosphate induced; type: cell-based, human; set-up: key: (-): Inhibition; (+): No Inhibition
Text: (§1) It is well known that platelet aggregation inhibitors may be useful as anti-thrombotic drugs. Inhibition of platelet aggregation can be conveniently measured in vitro by monitoring changes in optical density and/or light transmission in platelet rich plasma upon addition of suitable aggregating agents such as adenosine diphosphate, epinephrine, thrombin or collagen. Alternatively, platelet aggregation can be measured in vitro using platelet rich plasma obtained at various time intervales from animals given inhibitors by an oral or parenteral route.
(§2) Human […] is incubated with modified Tyrode's solution in a proportion of 40-50% human […]. The test compounds are added at varying concentrations and after 5 minutes incubation, an aggregating agent such as adenosine diphosphate or collagen is added. The change in optical density (light transmission) is monitored by eye and inhibition is recorded as a (-) or lack of inhibition is recorded as a (+). Test compounds are considered active if they inhibit adenosine diphosphate or collagen induced aggregation at a concentration of 25 mcg/ml or less within 5-10 minutes.

[2] = tested on: collagen induced platelet aggregation; assay: Inhibition of Platelet Aggregation-In Vitro, collagen induced; type: cell-based, human; set-up: key: (-): Inhibition; (+): No Inhibition
Text: as §1, §2

[3] = tested on: mean arterial blood pressure; assay: Hypotensive Activity in anesthetized rats; type: in vivo, Male Wistar strain rats; details: dose 2.1 mg/kg, intravenous (jugular) infusion over one minute, 4 animals, urethane anesthesia
Experimental: This procedure is a modification of the technique described by Pike, et al., Prostaglandins, Nobel Symposium 2, Stockholm, June, 1966, pg. 165.
Male Wistar strain rats (Royal Hart Farms) averaging approximately 250 g in weight are fastened to rat boards in a supine position by means of canvas vests and limb ties. The animals are anesthetized with a 900 mg/kg intraperitoneal dose of urethane. The left carotid artery is cannulated with polyethylene 50 tubing to measure arterial blood pressure and the left external jugular vein is cannulated with polyethylene 50 tubing for drug infusion. The animals are allowed to equilibrate for 15-30 minutes. The test compound is infused in 0.5 ml of saline, over a one minute period, at the indicated dose level, using a Harvard model 940 infusion pump and a 6 cc syringe at speed 5. Each drug dose is flushed with 0.4 ml of saline. The mean arterial blood pressure is measured before and after drug administration using a Statham model P23Db pressure transducer and a Brush model 260 recorder. The percent depression in mean arterial blood pressure and the duration of at least a 10% depression induced by representative compounds of this invention are recorded in Table C.

[4] = tested on: bronchospasms elicited by 5-hydroxytryptamine; assay: Bronchodilator Activity (Konzett procedure), 5-hydroxytryptamine; type: in vivo, guinea pigs; details: Cavia porcellus; three logarithmic cumulative intravenous doses
Experimental: (§3) Bronchodilator activity is determined in guinea pigs against bronchospasms elicited by intravenous injections of 5-hydroxytryptamine, histamine or acetylcholine by the Konzett procedure. [See J. Lulling, P. Lievens, F. El Sayed and J. Prignot, Arzeneimittel-Forschung, 18, 995 (1968).] In Table D, bronchodilator activity for representative compounds of this invention against one or more of the three spasmogenic agents is expressed as an ED50 determined from the results obtained with three logarithmic cumulative intravenous doses.

[5] = tested on: bronchospasms elicited by histamine; assay: Bronchodilator Activity (Konzett procedure), histamine; type: in vivo, guinea pigs; details: Cavia porcellus; three logarithmic cumulative intravenous doses
Experimental: as §3

[6] = tested on: bronchospasms elicited by acetylcholine; assay: Bronchodilator Activity (Konzett procedure), acetylcholine; type: in vivo, guinea pigs; details: Cavia porcellus; three logarithmic cumulative intravenous doses
Experimental: as §3

Compound | Inhibition of Platelet Aggregation, Adenosine Diphosphate ([1]; drug concentration 0.25 ug/ml) | Inhibition of Platelet Aggregation, Adenosine Diphosphate ([1]; drug concentration 2.5 ug/ml) | Inhibition of Platelet Aggregation, Adenosine Diphosphate ([1]; drug concentration 25 ug/ml) | Inhibition of Platelet Aggregation, Adenosine Diphosphate ([1]; drug concentration 250 ug/ml) | Inhibition of Platelet Aggregation, Collagen ([2]; drug concentration 0.25 ug/ml) | Inhibition of Platelet Aggregation, Collagen ([2]; drug concentration 2.5 ug/ml) | Inhibition of Platelet Aggregation, Collagen ([2]; drug concentration 25 ug/ml) | Inhibition of Platelet Aggregation, Collagen ([2]; drug concentration 250 ug/ml) | Duration in Minutes of at Least 10% Depression [3] [min] | Percent Depression of Mean Arterial Blood Pressure [3] [%] | ED50 [4] [µg/kg] | ED50 [5] [µg/kg] | ED50 [6] [µg/kg]
O=C(O)CCC/C=C\C[C@@H]1[C@@H](/C=C/C2(O)CCCCC2)[C@H](O)C[C@@H]1O (relative stereo) [nat(and ent)-9α,11α,15-Trihydroxy-15,16-tetramethylene-17,18,19,20-tetranor-13-trans-5-cis-prostadienoic Acid] | (+) | (+) | (+) | (-) | (+) | (+) | (-) | (-) |  |  |  |  | 
O=C(O)CCCC=CCC1C(O)CC(=O)C1C=CC1(O)CCCCC1 (stereo not drawn) [nat(and ent)-9α,15-Dihydroxy-11-oxo-15,16-tetramethylene-17,18,19,20-tetranor-5-cis-13-trans-prostadienoic Acid] |  |  | (-) | (-) | (+) | (-) | (-) | (-) | > 20 | -29 | 0.253 | > 3.2 | > 3.2
